Test results: publication PMC10745768, “Stereoselective Synthesis and Antiproliferative Activity of Steviol-Based Diterpene 1,3-Aminoalcohol Regioisomers” (Molecules, 2023)
Like-named read-outs stand apart in the source and are kept apart here.

How the values were obtained:
SiHa cells [1] = assay: MTT antiproliferative assay, SiHa; assay type: cell-based; conditions: Homo sapiens, 72 h; for inhibition at 10 µM / inhibition at 30 µM: read-out: Growth inhibition (%) ± SEM; for IC50: read-out: calculated IC50
Method in brief: (§1)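 Cells seeded at 5000 cells/well, incubated overnight, then exposed to test compounds at 10 µM and 30 µM for 72 h at 37 °C, 5% CO2 in MEM with 10% FBS. MTT added for 4 h, formazan dissolved in DMSO, absorbance read at 545 nm. IC50 from sigmoid curve fitting; two experiments, five wells each.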

[2] = tested on: cancer cells and fibroblasts (HeLa, SiHa, MCF-7, MDA-MB-231, A2780, NIH/3T3); assay: MTT antiproliferative assay, cancer cells and fibroblasts; assay type: cell-based; conditions: Fibroblast; range over all six cell lines; read-out: IC50 values against both the cancer cells and fibroblasts
Protocol: The in vitro anticancer effects of the presented compounds were assessed using the standard MTT [3-(4,5-dimethylthiazol2-yl)-2,5-diphenyltetrazolium bromide] assay on the following human cancer cell lines: cervical (HeLa and SiHa), breast (MCF-7 and MDA-MB-231) and ovarian cancer (A2780). The selectivity of the tested compounds was determined on murine embryonal fibroblast cells (NIH/3T3). The utilised cell lines were purchased from the European Collection of Cell Cultures (Salisbury, UK). The cells were cultivated in Eagle’s minimal essential medium supplemented with 10% fetal bovine serum, 1% non-essential amino acids and 1% antibiotic-antimycotic complex (penicillin, streptomycin, amphotericin B) at 37 °C in a humidified atmosphere containing 5% CO2. All media and supplements were purchased from Lonza Group Ltd. (Basel, Switzerland). The cancer cells were seeded into 96-well plates (5000 cells/well) and incubated overnight, and the test compounds were applied in two different concentrations (10 µM and 30 µM) and incubated for another 72 h under cell-culturing conditions. […] After 72 h, 20 µL of the 5 mg/mL MTT solution was added to each well, and the plates were incubated for 4 h. […] The absorbances were measured at 545 nm using a microplate reader (SPECTROStar Nano, BMG Labtech, Offenburg, Germany). […] The IC50 values were calculated using sigmoid curve fitting. […]

MDA-MB-231 cells [3] = assay: MTT antiproliferative assay, MDA-MB-231; assay type: cell-based; conditions: Homo sapiens; for IC50: MDA-MB-231, 72 h, read-out: calculated IC50; for inhibition at 10 µM: MDA-MB-231, 10 μM; for inhibition at 10 µM / inhibition at 30 µM: 72 h, read-out: Growth inhibition (%) ± SEM; for inhibition at 30 µM: MDA-MB-231, 30 μM
Method in brief: as §1

MCF-7 cells [4] = assay: MTT antiproliferative assay, MCF-7; assay type: cell-based; conditions: Homo sapiens, MCF7; for inhibition at 10 µM: MCF-7, 10 μM; for inhibition at 10 µM / inhibition at 30 µM: 72 h, read-out: Growth inhibition (%) ± SEM; for inhibition at 30 µM: MCF-7, 30 μM; for IC50: MCF-7, 72 h, read-out: calculated IC50
Method in brief: as §1

HeLa cells [5] = assay: MTT antiproliferative assay, HeLa; assay type: cell-based; conditions: Homo sapiens, 72 h; for inhibition at 10 µM / inhibition at 30 µM: read-out: Growth inhibition (%) ± SEM; for IC50: read-out: calculated IC50
Method in brief: as §1

NIH/3T3 fibroblast cells [6] = assay: MTT assay on non-malignant fibroblasts (selectivity); assay type: cell-based, murine; conditions: Mus musculus, NIH3T3; for inhibition at 10 µM: NIH/3T3, 10 μM; for inhibition at 10 µM / inhibition at 30 µM: 72 h, read-out: Growth inhibition (%) ± SEM; for inhibition at 30 µM: NIH/3T3, 30 μM; for IC50: NIH/3T3, 72 h, read-out: calculated IC50
Method in brief: as §1

A2780 cells [7] = assay: MTT antiproliferative assay, A2780; assay type: cell-based; conditions: Homo sapiens; for IC50: A2780, 72 h, read-out: calculated IC50; for inhibition at 10 µM: A2780, 10 μM; for inhibition at 10 µM / inhibition at 30 µM: 72 h, read-out: Growth inhibition (%) ± SEM; for inhibition at 30 µM: A2780, 30 μM
Method in brief: as §1

MCF-7 cells [8] = tested on: MCF-7 cells; design: method as in earlier work; conditions: ref 24 (Bai D, Int J Mol Sci 2023, 10.3390/ijms24021121), cited from earlier work
SiHa cells [9] = tested on: SiHa cells; design: method as in earlier work; conditions: ref 24 (Bai D, Int J Mol Sci 2023, 10.3390/ijms24021121), cited from earlier work
MDA-MB-231 cells [10] = tested on: MDA-MB-231 cells; design: method as in earlier work; conditions: ref 24 (Bai D, Int J Mol Sci 2023, 10.3390/ijms24021121), cited from earlier work
A2780 cells [11] = tested on: A2780 cells; design: method as in earlier work; conditions: ref 24 (Bai D, Int J Mol Sci 2023, 10.3390/ijms24021121), cited from earlier work
HeLa cells [12] = tested on: HeLa cells; design: method as in earlier work; conditions: ref 24 (Bai D, Int J Mol Sci 2023, 10.3390/ijms24021121), cited from earlier work
NIH/3T3 fibroblast cells [13] = tested on: NIH/3T3 fibroblast cells; design: method as in earlier work; conditions: ref 24 (Bai D, Int J Mol Sci 2023, 10.3390/ijms24021121), cited from earlier work

Compound | inhibition at 10 µM (SiHa cells [1]) | inhibition at 30 µM (SiHa cells [1]) | IC50 (SiHa cells [1]) | IC50 [2] | IC50 (MDA-MB-231 cells [3]) | inhibition at 10 µM (MDA-MB-231 cells [3]) | inhibition at 30 µM (MDA-MB-231 cells [3]) | inhibition at 10 µM (MCF-7 cells [4]) | inhibition at 30 µM (MCF-7 cells [4]) | IC50 (MCF-7 cells [4]) | inhibition at 10 µM (HeLa cells [5]) | inhibition at 30 µM (HeLa cells [5]) | IC50 (HeLa cells [5]) | inhibition at 10 µM (NIH/3T3 fibroblast cells [6]) | inhibition at 30 µM (NIH/3T3 fibroblast cells [6]) | IC50 (NIH/3T3 fibroblast cells [6]) | IC50 (A2780 cells [7]) | inhibition at 10 µM (A2780 cells [7]) | inhibition at 30 µM (A2780 cells [7]) | further results
COC(=O)[C@]1(C)CCC[C@@]2(C)[C@@H]3CC[C@@]4(CNCc5ccc(F)cc5)C[C@]3(CC[C@@H]21)C[C@H]4O [Compound 23, (4R,4aS,6aR,8R,9S,11aR,11bS)-Methyl 9-(((4-fluorobenzyl)amino)methyl)-8-hydroxy-4,11b-dimethyltetradecahydro-6a,9-methanocyclohepta[a]naphthalene-4-carboxylate] | 68.1 ± 1.85% | 80.5 ± 3.16% | 4.41 µM | 1.59 to 5.15 µM | 3.28 µM | 92.99 ± 0.39% | 91.4 ± 0.39% | 95.81 ± 0.84% | 95.3 ± 1.05% | 1.59 µM | 70.1 ± 1.97% | 90.41 ± 0.78% | 5.07 µM | 81.8 ± 3.07% | 93.62 ± 0.77% | 5.15 µM | 4.39 µM | 80 ± 1.6% | 95.71 ± 0.58% | 
COC(=O)[C@]1(C)CCC[C@@]2(C)[C@@H]3CC[C@@]4(CNCc5ccc(OC)cc5)C[C@]3(CC[C@@H]21)C[C@H]4O [Compound 32, (4R,4aS,6aR,8R,9S,11aR,11bS)-Methyl 8-hydroxy-9-(((4-methoxybenzyl)amino)methyl)-4,11b-dimethyltetradecahydro-6a,9-methanocyclohepta[a]naphthalene-4-carboxylate] | 95.6 ± 2.12% | 96.5 ± 1.09% | 5.77 µM | 1.04 to 5.77 µM | 2.3 µM | 97.12 ± 0.6% | 96.3 ± 1.02% | 99.59 ± 0.13% | 99.88 ± 0.23% | 1.04 µM | 97.09 ± 0.79% | 97.18 ± 0.76% | 3.09 µM | 96.93 ± 0.92% | 96.6 ± 1.05% | 3.71 µM | 3.78 µM | 97.94 ± 0.6% | 98.01 ± 0.6% | 
N.N.[Cl][Pt][Cl] [Cisplatin, cisplatin] |  |  |  |  |  |  |  |  |  |  |  |  |  |  |  |  |  |  |  | Growth inhibition (%) ± SEM (MCF-7 cells [8]; MCF-7, 10 μM): 53.03 ± 2.29%; Growth inhibition (%) ± SEM (MCF-7 cells [8]; MCF-7, 30 μM): 86.90 ± 1.22%; Growth inhibition (%) ± SEM (SiHa cells [9]; 10 μM): 60.98 ± 0.92%; Growth inhibition (%) ± SEM (SiHa cells [9]; 30 μM): 88.95 ± 0.53%; Growth inhibition (%) ± SEM (MDA-MB-231 cells [10]; MDA-MB-231, 10 μM): 67.51 ± 1.01%; Growth inhibition (%) ± SEM (MDA-MB-231 cells [10]; MDA-MB-231, 30 μM): 87.75 ± 1.10%; Growth inhibition (%) ± SEM (A2780 cells [11]; A2780, 10 μM): 83.57 ± 1.21%; Growth inhibition (%) ± SEM (A2780 cells [11]; A2780, 30 μM): 95.02 ± 0.28%; Growth inhibition (%) ± SEM (HeLa cells [12]; 10 μM): 42.61 ± 2.33%; Growth inhibition (%) ± SEM (HeLa cells [12]; 30 μM): 99.93 ± 0.26%; Growth inhibition (%) ± SEM (NIH/3T3 fibroblast cells [13]; NIH/3T3, 10 μM): 73.88 ± 1.63%; Growth inhibition (%) ± SEM (NIH/3T3 fibroblast cells [13]; NIH/3T3, 30 μM): 97.10 ± 0.15%
